Source: ChEMBL document CHEMBL1142418, “CoMFA and HQSAR studies on 6,7-dimethoxy-4-pyrrolidylquinazoline derivatives as phosphodiesterase10A inhibitors” (Bioorg Med Chem, 2008)

Columns and labels:
[1] = biological target: cAMP and cAMP-inhibited cGMP 3',5'-cyclic phosphodiesterase 10A (Homo sapiens, UniProt Q9Y233); test: Inhibition of PDE10A
[2] = biological target: cGMP-inhibited 3',5'-cyclic phosphodiesterase 3B (Homo sapiens, UniProt Q13370); test: Inhibition of PDE3B
[3] = biological target: cGMP-inhibited 3',5'-cyclic phosphodiesterase 3A (Homo sapiens, UniProt Q14432); test: Inhibition of PDE3A
cGMP-inhibited 3',5'-cyclic phosphodiesterase 3A, sequence (Q14432 whole entry): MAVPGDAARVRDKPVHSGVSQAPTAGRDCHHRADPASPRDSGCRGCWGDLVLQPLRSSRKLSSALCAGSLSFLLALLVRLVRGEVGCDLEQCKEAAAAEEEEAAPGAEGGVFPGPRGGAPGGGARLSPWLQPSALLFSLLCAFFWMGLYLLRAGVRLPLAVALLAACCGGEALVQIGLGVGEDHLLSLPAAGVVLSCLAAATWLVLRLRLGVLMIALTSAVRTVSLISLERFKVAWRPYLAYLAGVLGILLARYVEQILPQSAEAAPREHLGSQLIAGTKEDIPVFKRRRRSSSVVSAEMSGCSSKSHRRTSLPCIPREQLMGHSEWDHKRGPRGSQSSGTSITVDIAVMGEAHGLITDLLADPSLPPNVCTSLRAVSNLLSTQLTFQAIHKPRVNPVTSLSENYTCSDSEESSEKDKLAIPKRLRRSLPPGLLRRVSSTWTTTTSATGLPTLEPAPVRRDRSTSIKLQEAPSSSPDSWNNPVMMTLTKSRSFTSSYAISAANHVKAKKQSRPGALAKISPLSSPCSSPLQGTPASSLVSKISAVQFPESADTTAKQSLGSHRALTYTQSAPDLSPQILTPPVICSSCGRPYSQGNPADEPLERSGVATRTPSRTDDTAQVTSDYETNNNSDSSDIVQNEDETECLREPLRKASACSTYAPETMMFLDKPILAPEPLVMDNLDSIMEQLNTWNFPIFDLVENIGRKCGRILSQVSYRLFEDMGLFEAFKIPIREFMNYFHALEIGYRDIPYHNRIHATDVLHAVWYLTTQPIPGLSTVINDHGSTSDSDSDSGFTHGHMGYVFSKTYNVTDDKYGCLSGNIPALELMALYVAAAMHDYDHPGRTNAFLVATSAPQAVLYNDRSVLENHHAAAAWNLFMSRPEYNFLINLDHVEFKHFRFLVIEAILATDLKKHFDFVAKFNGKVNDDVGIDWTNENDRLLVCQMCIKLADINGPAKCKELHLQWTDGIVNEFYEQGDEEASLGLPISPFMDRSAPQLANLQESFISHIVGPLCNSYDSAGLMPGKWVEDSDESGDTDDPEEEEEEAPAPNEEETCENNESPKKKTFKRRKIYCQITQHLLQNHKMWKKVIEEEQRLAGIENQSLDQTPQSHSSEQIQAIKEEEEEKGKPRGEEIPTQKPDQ

cAMP and cAMP-inhibited cGMP 3',5'-cyclic phosphodiesterase 10A, sequence (Q9Y233 whole entry): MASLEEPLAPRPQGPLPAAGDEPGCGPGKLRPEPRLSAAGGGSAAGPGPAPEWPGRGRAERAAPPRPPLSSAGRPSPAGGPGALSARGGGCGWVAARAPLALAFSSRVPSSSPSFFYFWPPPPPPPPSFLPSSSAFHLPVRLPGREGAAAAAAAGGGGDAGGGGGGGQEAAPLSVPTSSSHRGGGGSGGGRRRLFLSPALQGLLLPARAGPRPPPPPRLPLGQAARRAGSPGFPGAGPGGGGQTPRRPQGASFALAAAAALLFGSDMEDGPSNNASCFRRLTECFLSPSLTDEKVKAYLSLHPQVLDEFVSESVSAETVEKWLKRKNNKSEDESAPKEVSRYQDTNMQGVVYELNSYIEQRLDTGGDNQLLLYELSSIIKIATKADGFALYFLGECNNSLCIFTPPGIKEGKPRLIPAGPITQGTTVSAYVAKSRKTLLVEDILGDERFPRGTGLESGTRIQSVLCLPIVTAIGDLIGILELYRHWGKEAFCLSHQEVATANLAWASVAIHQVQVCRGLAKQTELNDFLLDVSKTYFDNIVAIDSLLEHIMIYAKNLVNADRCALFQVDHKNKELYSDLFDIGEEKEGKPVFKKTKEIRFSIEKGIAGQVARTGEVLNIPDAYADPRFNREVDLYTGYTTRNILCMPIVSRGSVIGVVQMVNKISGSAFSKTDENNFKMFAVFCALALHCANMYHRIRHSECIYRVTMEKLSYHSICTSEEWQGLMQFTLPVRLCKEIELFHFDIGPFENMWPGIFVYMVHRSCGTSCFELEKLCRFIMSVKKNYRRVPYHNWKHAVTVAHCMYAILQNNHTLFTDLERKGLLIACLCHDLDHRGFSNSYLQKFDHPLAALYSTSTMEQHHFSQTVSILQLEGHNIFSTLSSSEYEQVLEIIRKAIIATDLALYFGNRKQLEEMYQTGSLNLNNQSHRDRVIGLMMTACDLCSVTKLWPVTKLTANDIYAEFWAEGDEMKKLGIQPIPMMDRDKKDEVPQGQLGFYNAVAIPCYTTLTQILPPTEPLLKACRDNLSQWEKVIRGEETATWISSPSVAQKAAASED
cGMP-inhibited 3',5'-cyclic phosphodiesterase 3B, sequence (Q13370 whole entry): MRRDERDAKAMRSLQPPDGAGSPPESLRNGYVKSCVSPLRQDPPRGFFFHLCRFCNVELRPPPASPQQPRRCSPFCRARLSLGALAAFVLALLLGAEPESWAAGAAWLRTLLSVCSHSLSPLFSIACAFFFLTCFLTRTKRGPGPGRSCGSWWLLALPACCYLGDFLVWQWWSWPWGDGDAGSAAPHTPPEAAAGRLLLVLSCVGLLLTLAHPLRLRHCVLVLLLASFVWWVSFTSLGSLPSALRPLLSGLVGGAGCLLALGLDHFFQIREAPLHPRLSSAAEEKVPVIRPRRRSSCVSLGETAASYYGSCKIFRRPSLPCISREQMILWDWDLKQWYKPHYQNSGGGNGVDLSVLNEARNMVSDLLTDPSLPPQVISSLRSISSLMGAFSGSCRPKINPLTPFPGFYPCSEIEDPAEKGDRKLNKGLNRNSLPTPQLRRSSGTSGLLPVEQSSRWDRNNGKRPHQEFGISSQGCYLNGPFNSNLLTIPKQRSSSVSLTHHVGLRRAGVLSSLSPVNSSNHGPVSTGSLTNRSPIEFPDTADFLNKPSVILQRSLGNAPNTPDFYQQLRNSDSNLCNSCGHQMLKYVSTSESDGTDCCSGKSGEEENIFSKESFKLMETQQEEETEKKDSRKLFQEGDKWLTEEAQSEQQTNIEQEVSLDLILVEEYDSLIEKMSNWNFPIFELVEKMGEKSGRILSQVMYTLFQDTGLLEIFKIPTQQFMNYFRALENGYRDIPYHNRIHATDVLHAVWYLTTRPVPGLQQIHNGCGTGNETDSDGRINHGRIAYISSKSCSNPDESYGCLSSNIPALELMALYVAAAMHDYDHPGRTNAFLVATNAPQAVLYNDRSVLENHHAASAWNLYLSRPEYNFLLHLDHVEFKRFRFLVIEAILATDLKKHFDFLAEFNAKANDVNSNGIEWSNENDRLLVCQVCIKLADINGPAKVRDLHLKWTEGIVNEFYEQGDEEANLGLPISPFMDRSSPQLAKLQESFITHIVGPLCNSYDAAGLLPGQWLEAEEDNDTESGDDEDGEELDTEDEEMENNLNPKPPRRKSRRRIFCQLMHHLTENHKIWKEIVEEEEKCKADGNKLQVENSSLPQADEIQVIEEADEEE

| Ki [1] [µM] | Ki [2] [µM] | Ki [3] [µM] | Structure (SMILES) |
| --- | --- | --- | --- |
| 0.136 | – | – | COc1cc2ncnc(N3CC[C@@H](Oc4cccc(-c5ccccc5)c4)C3)c2cc1OC |
| 0.017 | – | – | COc1ccc2ccc(O[C@@H]3CCN(c4ncnc5cc(OC)c(OC)cc45)C3)cc2c1 |
| 0.094 | – | – | CCOc1cccc(O[C@@H]2CCN(c3ncnc4cc(OC)c(OC)cc34)C2)c1 |
| 0.019 | – | – | COc1cc2ncnc(N3CC[C@@H](Oc4cc5ccccc5cn4)C3)c2cc1OC |
| 0.112 | – | – | COc1cc2ncnc(N3CC[C@@H](Oc4ccncc4)C3)c2cc1OC |
| 0.123 | – | – | COc1cc2ncnc(N3CC[C@@H](Oc4ccccn4)C3)c2cc1OC |
| 0.018 | – | – | COc1ccc2cc(O[C@@H]3CCN(c4ncnc5cc(OC)c(OC)cc45)C3)ccc2c1 |
| 0.326 | – | – | COc1cc2ncnc(N3CC[C@@H](Oc4ccccc4C)C3)c2cc1OC |
| 0.012 | – | – | COc1cc2ncnc(N3CC[C@@H](Oc4ccc5ncccc5c4)C3)c2cc1OC |
| 0.21 | – | – | COc1cc2ncnc(N3CC[C@@H](Oc4cccc5ccccc45)C3)c2cc1OC |
| 0.128 | – | – | COc1cc2ncnc(N3CC[C@@H](Oc4cccnc4)C3)c2cc1OC |
| 0.054 | – | – | CCOc1ccc(O[C@@H]2CCN(c3ncnc4cc(OC)c(OC)cc34)C2)cc1 |
| 0.044 | – | – | COc1cc2ncnc(N3CC[C@@H](Oc4ncc(Cl)cn4)C3)c2cc1OC |
| 0.1 | – | – | COc1cc2ncnc(N3CC[C@@H](Oc4ccc(C(C)(C)C)cc4)C3)c2cc1OC |
| 0.068 | – | – | COc1cc2ncnc(N3CC[C@@H](Oc4ccc5c(c4)CCC5)C3)c2cc1OC |
| 0.198 | – | – | COc1cc2ncnc(N3CC[C@@H](Oc4ccccc4Cl)C3)c2cc1OC |
| 0.13 | – | – | COc1cc2ncnc(N3CC[C@@H](Oc4ccccc4C#N)C3)c2cc1OC |
| 0.012 | – | – | COc1cc2ncnc(N3CC[C@@H](Oc4ccc5cccnc5c4)C3)c2cc1OC |
| 0.018 | – | – | COc1cc2ncnc(N3CC[C@@H](Oc4ccc5nc(C)ccc5c4)C3)c2cc1OC |
| 0.067 | – | – | COc1ccc(O[C@@H]2CCN(c3ncnc4cc(OC)c(OC)cc34)C2)cc1OC |
| 0.24 | – | – | COc1cc2ncnc(N3CC[C@@H](Oc4ccccc4OC)C3)c2cc1OC |
| 0.811 | – | – | COc1cc2ncnc(N3CC[C@@H](Oc4ccccc4C(F)(F)F)C3)c2cc1OC |
| 0.171 | 0.474 | 0.37 | COc1cc2ncnc(N3CC[C@@H](Oc4cccc(C(C)C)c4)C3)c2cc1OC |
| 0.185 | 1.82 | 0.739 | COc1cc2ncnc(N3CC[C@@H](Oc4ccc(OC(F)(F)F)cc4)C3)c2cc1OC |
